Reference: paper PMC7587962, “Evaluation of Cytotoxicity and α-Glucosidase Inhibitory Activity of Amide and Polyamino-Derivatives of Lupane Triterpenoids” (Molecules, 2020)

Experiments:
[1] = tested on: Rat Liver ER Neutral α-Glucosidase; assay: Endoplasmic reticulum α-glucosidase activity assay; format: biochemical
Excerpt: Betulinic acid inhibits yeast α-glucosidase activity and interferes with N-linked glycan modifications to cell-surface intercellular adhesion molecule-1 (ICAM-1) in human lung carcinoma A549 cells in a similar manner to castanospermine, an inhibitor of endoplasmic reticulum α-glucosidases I and II [66]. […] Taken together, these considerations prompted us to evaluate a series of lupanes with amide function or polyamine chain 11, 12, 16, 18, and 22–26 for α-glucosidase inhibition. Initially, they were screened against α-glucosidase of S. cerevisiae as an accessible and high-throughput model. Confirmatory experiments were performed on isolated rough endoplasmic reticulum vesicles from rat liver, which contain neutral α-glucosidases I and II in a membrane-bound form.
Endoplasmic reticulum was isolated from hepatocytes of decapitated male Sprague-Dawley rats, which were starved overnight and sacrificed the next morning. All experiments were approved by Volgograd regional ethic committee. The whole procedure was performed at 4 °C. In brief, a fresh tissue sample from an animal was washed twice with 10 mL of PBS to remove residual blood. The tissue was placed on a paper towel in order to absorb excess liquid and blood clots, if present. It was cut further into small pieces (1.5–2 cm) and washed once more. […] Homogenate was centrifuged at 1000× g for 10 min at 4 °C. After removal of the floating lipid layer by aspiration, supernatant was separated and centrifuged at 12,000× g for 15 min. at 4 °C. The supernatant fraction, which is the post mitochondrial fraction (PMF), was used for isolation of rough endoplasmic reticulum (RER) enriched microsomes by precipitation with 8 mM CaCl2 added dropwise. The final concentration of CaCl2 was 7 mM. Resulting sample was centrifuged at 8000 g for 10 min. at 4 °C. The supernatant was discarded, and the pellet was suspended in isotonic extraction buffer (0.3 mL of buffer for each g of original tissue). The suspension was homogenized completely to afford RER enriched microsomes. In a 96-well flat transparent plate 25 µL of the isolated RER microsomes were incubated with 50 µL of test compounds in 67 mM PBS (pH 6.8) at 37 °C for 10 min. Then, p-nitrophenyl-α-D-glucopyranoside (Sigma #N1377, St. Louis, MO, USA) was added to 1 mM final concentration and increase in absorbance was recorded for 42 min at 405 nm wavelength with Infinite M200 PRO microplate reader (Tecan, Austria). Concentration of RER microsomes was adjusted to achieve an increase in optical density of ~0.2 in control samples after 30 min. of incubation. Test compounds were prepared as described above for the yeast α-glucosidase assay.

[2] = tested on: RPMI-8226; set-up: method as in PMID 25405285; details: standard drugs used by NCI as control; cited from earlier work
[3] = tested on: A549/ATCC; set-up: method as in PMID 25405285; details: standard drugs used by NCI as control; cited from earlier work
[4] = tested on: HOP-62; set-up: method as in PMID 25405285; details: standard drugs used by NCI as control; cited from earlier work
[5] = tested on: HOP-92; set-up: method as in PMID 25405285; details: standard drugs used by NCI as control; cited from earlier work
[6] = tested on: NCI-H460; set-up: method as in PMID 25405285; details: standard drugs used by NCI as control; cited from earlier work
[7] = tested on: HCC-2998; set-up: method as in PMID 25405285; details: standard drugs used by NCI as control; cited from earlier work
[8] = tested on: SNB-19; set-up: method as in PMID 25405285; details: standard drugs used by NCI as control; cited from earlier work
[9] = tested on: U251; set-up: method as in PMID 25405285; details: standard drugs used by NCI as control; cited from earlier work
[10] = tested on: M14; set-up: method as in PMID 25405285; details: standard drugs used by NCI as control; cited from earlier work
[11] = tested on: SK-MEL-5; set-up: method as in PMID 25405285; details: standard drugs used by NCI as control; cited from earlier work
[12] = tested on: IGROV1; set-up: method as in PMID 25405285; details: standard drugs used by NCI as control; cited from earlier work
[13] = tested on: OVCAR-5; set-up: method as in PMID 25405285; details: standard drugs used by NCI as control; cited from earlier work
[14] = tested on: 786-0; set-up: method as in PMID 25405285; details: standard drugs used by NCI as control; cited from earlier work
[15] = tested on: A498; set-up: method as in PMID 25405285; details: standard drugs used by NCI as control; cited from earlier work
[16] = tested on: UO-31; set-up: method as in PMID 25405285; details: standard drugs used by NCI as control; cited from earlier work
[17] = tested on: PC-3; set-up: method as in PMID 25405285; details: standard drugs used by NCI as control; cited from earlier work
[18] = tested on: MDA-MB-231/ATCC; set-up: method as in PMID 25405285; details: MDA-MB-31/ATCC; standard drugs used by NCI as control; cited from earlier work
[19] = tested on: MDA-MB-468; set-up: method as in PMID 25405285; details: standard drugs used by NCI as control; cited from earlier work
[20] = tested on: HL-60(TB); details: standard drugs used by NCI as control; cited from earlier work

For `C=C(C)[C@@H]1CC[C@]2(C(=O)NCCNCCNCCN)CC[C@]3(C)[C@H](CC[C@@H]4[C@@]5(C)CCC(=O)C(C)(C)[C@@H]5CC[C@]43C)[C@@H]12` [Compound 11], the “Rat Liver ER Neutral α-Glucosidase Inhibition, m ± SD” value ([1]; 10 μM) was 15.03 ± 8.98% and the “Rat Liver ER Neutral α-Glucosidase Inhibition, m ± SD” value ([1]; 100 μM) was 43.60 ± 7.98 %.

For `COc1cccc2c1C(=O)c1c(O)c3c(c(O)c1C2=O)C[C@@](O)(C(=O)CO)C[C@@H]3O[C@H]1C[C@H](N)[C@H](O)[C@H](C)O1` [DRB, doxorubicin], the GI50 [2] is given as 80 nM, the GI50 [3] is given as 60 nM and the GI50 [4] is given as 70 nM. The GI50 [5] was 100 nM, the GI50 [6] was 20 nM and the GI50 [7] was 260 nM. The GI50 [8] was 40 nM, the GI50 [9] was 40 nM and the GI50 [10] was 180 nM. The GI50 [11] was 80 nM, the GI50 [12] was 170 nM and the GI50 [13] was 410 nM. For the same compound, the GI50 [14] was 130 nM, the GI50 [15] was 100 nM and the GI50 [16] was 490 nM. The GI50 [17] was 320 nM, the GI50 [18] was 510 nM and the GI50 [19] was 50 nM. For the same compound, the GI50 [20] was 190 nM.
